The text below walks through data of patent US20260345603A1, “PRMT5 INHIBITORS” (Beijing Earthwise Technology Co., Ltd., priority 2022, published 2026).

In one assay the test system is HCT116^MTAP Deletion cells. Kind of assay: Anti-proliferation assay on cells (CTG, 10 days), HCT116 MTAP Deletion. In kind it is cell-based. The conditions noted are these: Homo sapiens, HCT-116, 240 h, anti-proliferative activity, HCT116 MTAP Deletion, 10 days, class symbols; read-out: HCT116^MTAP Deletion GI50. Here is the method: HCT116^MTAD Deletion cells were from Pharmaron (China); HCT116 cells were from ATCC; McCoy's 5A medium was purchased from Invitrogen (USA); penicillin-streptomycin and fetal bovine serum were purchased from Gibco (USA); a 384-well plate was purchased from PerkinElmer (USA); and Cell-Titer Glo reagent was purchased from Promega (USA).
Compound dissolution: All the compounds were dissolved in dimethyl sulfoxide (DMSO) and then stored. The compounds were stored at room temperature in a dry condition for 3 months for short term storage or at −20 °C for long term storage.
The cells were cultured strictly in accordance with ATCC requirements. The cell culture medium (McCoy's 5A medium+10% fetal bovine serum+1% penicillin+streptomycin) was transferred to a 15 mL centrifuge tube and centrifuged at 1000 rpm for 5 min. The supernatant was removed. The cells were resuspended with complete culture medium, inoculated into a culture dish at the required density, and cultured in an incubator at 37 °C, 95% humid air, and 5% carbon dioxide. The culture medium was replenished or the cells were passaged every 2-3 days depending on the cell growth condition.
When the confluency of cells in the culture dish reached about 90%, the cells were washed twice with PBS, and then treated with trypsin to become single cells. The cells were counted, and 40 μl of the cells was inoculated into each well of a 384-well plate (50 cells/well). The plate was equilibrated at 37 °C and 5% carbon dioxide for 10 to 15 minutes. The compounds were injected into the 384-well plate using Echo550, and positive control and negative control (0.1% DMSO) were set up. Each compound was subjected to a 3-fold dilution, resulting in 10 concentration gradients, in duplicate, and the content of DMSO was 0.1%. The 384-well plate was incubated in a cell culture incubator for 10 days.
Then, 40 μl of cell proliferation assay reagent (CTG) was added to the 384-well plate, and the plate was shaken to mix well. Then, the 384-well plate was incubated at 37 °C and 5% carbon dioxide in the dark for 30 minutes. The data were read using the Envision multifunctional microplate reader. […] According to the different drug concentrations and their corresponding inhibition rates, the GI50 curve was drawn using GraphPad 8.0 software. The data were analyzed, and the final GI50 value was obtained.
Usually GI50 stands for the concentration at which growth is held to half of that of the control. For the molecule `Cc1cc(NC(=O)C(=O)N(Cc2ccc(C(F)(F)F)cn2)CC2CCC2)cnc1N` [Example 16], the GI50 fell in the range of 10 to 100 nM.

Turning to `CCC(C)N(Cc1ccc(C(F)(F)F)cn1)C(=O)C(=O)Nc1cnc(N)c(C)c1` (single isomer, unassigned) [Example 45-P1], the GI50 was in the range of 10 to 100 nM.

Take `CCC(C)N(Cc1ccc(C(F)(F)F)cn1)C(=O)C(=O)Nc1cnc(N)c2c1cnn2C` (stereo not drawn) [Example 46-P2]: the 50% growth inhibitory concentration (GI50) fell in the range of 10 to 100 nM.

Turning to `CN(C(=O)C(=O)Nc1cnc(N)c2c1cnn2C)C1COc2cc(-c3cnc(C4CC4)s3)ccc21` (stereo not drawn) [Example 236], the 50% growth inhibitory concentration (GI50) was at most 10 nM.

As to `Nc1ncc(NC(=O)C(=O)N(Cc2ccc(C(F)(F)F)cn2)CC2CCC2)c2c1COC2` [Example 41], the GI50 fell in the range of 100 to 1000 nM.

Take `Cc1cc(NC(=O)C(=O)N(Cc2ccc(C#N)cn2)[C@H](C)c2ncccn2)cnc1N` [Example 28]: the concentration for 50% growth inhibition (GI50) was in the range of 1000 to 10000 nM.

In the case of `C[C@H](c1ncccn1)N(Cc1ccc(C(F)(F)F)cn1)C(=O)C(=O)Nc1cnc(N)c2cncn12` [Example 38], the concentration for 50% growth inhibition (GI50) was above 10000 nM.

For the molecule `CN(C(=O)C(=O)Nc1cnc(N)c2c1cnn2C)C1COCc2cc(-c3ccnn3C3CC3)ccc21` (racemic) [Compound 241], the GI50 was at most 10 nM.

As to `C[C@H](c1ncccn1)N(Cc1ccc(C(F)(F)F)cn1)C(=O)C(=O)Nc1cnc(N)c(F)c1` [Example 22], the concentration for 50% growth inhibition (GI50) lay within 1000 to 10000 nM.

On to `CN(C(=O)C(=O)Nc1cnc(N)c2c1cnn2C)C1COCc2c(F)cc(Cl)cc21` (racemic) [Compound 155], for which the concentration for 50% growth inhibition (GI50) was 10 to 100 nM.

For `CN(C(=O)C(=O)Nc1cnc(N)c2c1cnn2C)C1COc2cc(Cl)c(Cl)cc21` (racemic) [Compound 186], the GI50 was at most 10 nM.

`CN(C(=O)C(=O)Nc1cnc(N)c2c1cnn2C)C1COc2nc(C(F)(F)F)ccc21` (stereo not drawn) [Example 159]: the 50% growth inhibitory concentration (GI50) was 100 to 1000 nM.

`CN(C(=O)C(=O)Nc1cnc(N)c2c1cnn2C)C1COCc2cc(-c3ccnn3C)ccc21` (stereo not drawn) [Example 137]: the GI50 is at most 10 nM.

With `Cc1cc(C2CC2C(=O)N(Cc2ccc(C(F)(F)F)cn2)[C@H](C)c2ncccn2)cnc1N` (stereo partly drawn) [Example 7], the GI50 is above 10000 nM.

Consider `Cc1cc(N)ncc1NC(=O)C(=O)N(Cc1ccc(C(F)(F)F)cn1)[C@H](C)c1ncccn1` [Example 26], for which the GI50 was 100 to 1000 nM.

On to `Cc1cc(NC(=O)C(=O)N(Cc2ccc(C(F)(F)F)cn2)C(C)c2cscn2)cnc1N` (single isomer, unassigned) [Example 19-P1], for which the concentration for 50% growth inhibition (GI50) fell in the range of 10 to 100 nM.

In the case of `Cc1cc(NC(=O)C(=O)N(Cc2ccc(N3CCC(F)(F)C3)cn2)[C@H](C)c2ncccn2)cnc1N` [Example 29], the GI50 is 100 to 1000 nM.

Regarding `Cc1cc(/C=C/C(=O)N(Cc2ccc(C(F)(F)F)cn2)[C@H](C)c2ncccn2)cnc1N` [Example 6], the GI50 was above 10000 nM.

As for `Cc1cc(NC(=O)C(=O)N(Cc2ccc(C(F)(F)F)cn2)C2CCCOC2)cnc1N` (single isomer, unassigned) [Example 14-P1], the 50% growth inhibitory concentration (GI50) was 100 to 1000 nM.

On to `CN(C(=O)C(=O)Nc1cnc(N)c2c1cnn2C)C1COCc2c1ccc(Cl)c2Cl` (racemic) [Compound 168], for which the concentration for 50% growth inhibition (GI50) was at most 10 nM.

As for `Cc1cc(NC(=O)C(=O)N(C)C2COCc3cc(C4=CCOCC4)ccc32)cnc1N` (racemic) [Compound 162], the concentration for 50% growth inhibition (GI50) was in the range of 100 to 1000 nM.

As for `CC(c1cscn1)N(Cc1ccc(C(F)(F)F)cn1)C(=O)C(=O)Nc1cnc(N)c2c1cnn2C` (stereo not drawn) [Example 44], the GI50 is 10 to 100 nM.

In the case of `CCC(C)N(Cc1ccc(OCC(F)(F)F)nn1)C(=O)C(=O)Nc1cnc(N)c(C)c1` (stereo not drawn) [Example 63], the GI50 lay in the range of 100 to 1000 nM.

As for `Cc1ncc(-c2ccc3c(n2)COCC3N(C)C(=O)C(=O)Nc2cnc(N)c3c2cnn3C)s1` (racemic) [Compound 209], the concentration for 50% growth inhibition (GI50) is at most 10 nM.

For `[2H]C([2H])([2H])n1ncc2c(NC(=O)C(=O)N(C)C3COc4cc(C(F)(F)F)ccc43)cnc(N)c21` (stereo not drawn) [Example 173], the GI50 lay within 10 to 100 nM.

As to `Cc1cc(NC(=O)C(=O)N(Cc2ccc(C(F)(F)F)cn2)c2cnn(C)c2)cnc1N` [Example 18], the GI50 fell in the range of 100 to 1000 nM.

Regarding `CCC(C)N(Cc1ccc(C(F)(F)F)cn1)C(=O)C(=O)Nc1cnc(N)c(C)c1` (stereo not drawn) [Example 8], the 50% growth inhibitory concentration (GI50) lay within 10 to 100 nM.

As to `CN(C(=O)C(=O)Nc1cnc(N)c2c1cnn2C)C1COCc2cc(C(F)(F)F)ccc21` (stereo not drawn) [Example 106-P1], the GI50 fell in the range of 10 to 100 nM.

On to `Cc1cc(NC(=O)C(=O)N(Cc2ccc(C3=CCOCC3)nn2)[C@H](C)c2ncccn2)cnc1N` [Example 42], for which the GI50 lay in the range of 100 to 1000 nM.

`CN(C(=O)C(=O)Nc1cnc(N)c2c1cnn2C)C1COCc2cc(-c3cnn(C)c3)ccc21` (stereo not drawn) [Example 99]: the GI50 was at most 10 nM.

For the molecule `C[C@H](C1CC1)N(Cc1ccc(C(F)(F)F)cn1)C(=O)C(=O)Nc1cnc(N)c2c1COC2` [Example 39], the GI50 was 100 to 1000 nM.

In the case of `Cc1cc(NC(=O)C(=O)N(Cc2ccc(C(F)(F)F)cn2)CC2CC2)cnc1N` [Example 15], the 50% growth inhibitory concentration (GI50) lay in the range of 10 to 100 nM.

`Cc1cc(NC(=O)C(=O)N(Cc2ccc(C(F)(F)F)cn2)C2CCC2)cnc1N` [Example 13]: the concentration for 50% growth inhibition (GI50) was in the range of 100 to 1000 nM.

As for `CN(C(=O)C(=O)Nc1cnc(N)c2c1cnn2C)C1COCc2cc(C3=CCC(F)(F)CC3)ccc21` (stereo not drawn) [Example 157], the 50% growth inhibitory concentration (GI50) was at most 10 nM.

For the molecule `Cc1cc(NC(=O)C(=O)N(Cc2ccc(C(F)(F)F)cn2)CC2CCCC2)cnc1N` [Example 17], the GI50 fell in the range of 10 to 100 nM.

As for `C[C@H](c1ncccn1)N(Cc1ccc(C(F)(F)F)cn1)C(=O)C(=O)Nc1cnc(N)c2c1CCCC2` [Example 31], the GI50 was 100 to 1000 nM.

Regarding `COc1ncc(NC(=O)C(=O)N(Cc2ccc(C(F)(F)F)cn2)[C@H](C)c2ncccn2)cc1C(N)=O` [Example 25], the GI50 fell in the range of 10 to 100 nM.

In the case of `CN(C(=O)C(=O)Nc1cnc(N)c2c1cnn2C)C1COc2cc(-c3ccnn3C3CC3)ccc21` (stereo not drawn) [Example 212], the 50% growth inhibitory concentration (GI50) was at most 10 nM.

For the molecule `Cc1cc(NC(=O)C(=O)N(Cc2ccc(C(F)(F)F)cn2)[C@H](C)C2CC2)cnc1N` [Example 36], the concentration for 50% growth inhibition (GI50) is 10 to 100 nM.

For `CCc1cc(NC(=O)C(=O)N(Cc2ccc(C(F)(F)F)cn2)[C@H](C)c2ncccn2)cnc1N` [Example 21], the GI50 fell in the range of 100 to 1000 nM.

As to `[2H]C([2H])([2H])N(C(=O)C(=O)Nc1cnc(N)c2c1cnn2C)C1COCc2cc(C(F)(F)F)ccc21` (stereo not drawn) [Example 109], the GI50 is at most 10 nM.

As for `Cc1cc(NC(=O)C(=O)N(Cc2ccc(C(F)(F)F)cn2)CC(C)C)cnc1N` [Example 37], the GI50 was in the range of 10 to 100 nM.

Consider `Cc1cc(NC(=O)C(=O)N(C)Cc2ccc(C(F)(F)F)cn2)cnc1N` [Example 3], for which the 50% growth inhibitory concentration (GI50) was in the range of 1000 to 10000 nM.

Consider `C[C@H](c1ncccn1)N(Cc1ccc(C(F)(F)F)cn1)C(=O)C(=O)Nc1cnc(N)c2c1COC2` [Example 2], for which the 50% growth inhibitory concentration (GI50) lay within 10 to 100 nM.

`CN(C(=O)C(=O)Nc1cnc(N)c2c1cnn2C)C1COc2cc(-c3ccnn3C)ccc21` (stereo not drawn) [Example 161]: the 50% growth inhibitory concentration (GI50) is at most 10 nM.

Regarding `Nc1ncc(NC(=O)C(=O)N(Cc2ccc(C(F)(F)F)cn2)CC2CC2)c2c1COC2` [Example 40], the 50% growth inhibitory concentration (GI50) is 100 to 1000 nM.

As for `C[C@H](c1ncccn1)N(Cc1ccc(C(F)(F)F)cn1)C(=O)C(=O)Nc1cnc(N)c2ccncc12` [Example 32], the 50% growth inhibitory concentration (GI50) is 100 to 1000 nM.

For `CN(C(=O)C(=O)Nc1cnc(N)c2c1cnn2C)C1COc2cc(-c3cnn(C4CC4)c3)ccc21` (stereo not drawn) [Example 211], the GI50 is at most 10 nM.

As to `CN(C(=O)C(=O)Nc1cnc(N)c2c1cnn2C)C1COCc2cc(-c3cnn(C4CC4)c3)ccc21` (racemic) [Compound 223], the GI50 was at most 10 nM.

For the molecule `Cc1ccc2c(c1)OCC2N(C)C(=O)C(=O)Nc1cnc(N)c2c1cnn2C` (stereo not drawn) [Example 233], the 50% growth inhibitory concentration (GI50) was in the range of 10 to 100 nM.

As to `Cc1cc(NC(=O)C(=O)N(Cc2ccc(C(F)(F)F)cn2)C2CC2)cnc1N` [Example 12], the GI50 was in the range of 100 to 1000 nM.

Regarding `Cn1ncc2c(NC(=O)C(=O)N(Cc3ccc(C(F)(F)F)cn3)CC3CCC3)cnc(N)c21` [Example 4], the 50% growth inhibitory concentration (GI50) lay within 10 to 100 nM.

`Cc1nc(NC(=O)C(=O)N(Cc2ccc(C(F)(F)F)cn2)[C@H](C)c2ncccn2)cnc1N` [Example 27]: the concentration for 50% growth inhibition (GI50) lay in the range of 100 to 1000 nM.

Regarding `CCOc1ccc(CN(C(=O)C(=O)Nc2cnc(N)c(C)c2)[C@H](C)c2ncccn2)nn1` [Example 35], the concentration for 50% growth inhibition (GI50) was in the range of 10 to 100 nM.

In the case of `CCC(C)N(Cc1ccc(C(F)(F)F)cn1)C(=O)C(=O)Nc1cnc(N)c2c1cnn2C` (racemic) [Example 46-P1], the concentration for 50% growth inhibition (GI50) was in the range of 10 to 100 nM.

On to `CC1OCC(N(C)C(=O)C(=O)Nc2cnc(N)c3c2cnn3C)c2ccc(C(F)(F)F)cc21` (stereo not drawn) [Compound 187], for which the 50% growth inhibitory concentration (GI50) is at most 10 nM.

The same assay, now with this note: anti-proliferative activity, HCT116 MTAP Deletion, 10 days, class symbols; read-out: HCT116^MTAP Deletion GI50.
For the molecule `CN(C(=O)C(=O)Nc1cnc(N)c2c1cnn2C)C1COCc2cc(-c3cnn(C)c3)ccc21` (stereo not drawn) [Example 124-P1], the 50% growth inhibitory concentration (GI50) was at most 10 nM.
